These results are taken from patent US5082964A, “Selective acetylcholinesterase inhibitors and methods of making and using same” (priority 1986, dated 1992).

Where a name gives a salt, the structure may show the parent alone. Read-outs that look alike come from different tables or passages of the source.

One may read the IC50 as the point on the concentration scale where inhibition reaches its midpoint. As usually defined, the Km is the concentration of substrate that gives half-maximal velocity.

Data set [1] deals with acetylcholinesterase (Electrophorus electricus, UniProt O42275). Briefly: Ellman assay for acetylcholinesterase inhibition, IC50 (eel-derived enzyme). Type of data set: biochemical, electric eel. The text has this: (§1) Ortho-, meta-, and p-chloromethylphenyl choline carbonates are all examples of inhibitors of acetylcholinesterase in accordance with the present invention. Employing the Ellman assay for acetylcholinesterase inhibition [G. L. Ellman, K. D. Courtney, V. Andrews, Jr., and R. M. Featherstone, Biochem. Pharmacol., vol.
From such competitive inhibitor measurements it was possible to determine an IC50 (proportionate amount necessary to reduce acetylcholinesterase activity by 50%) for various inhibitors [meaning those containing the CH2 X group] in this patent. All IC50 values fell between 8 and 200 uM. The exact value varied with the source of the acetylcholinesterase and quantitative measurements were performed on electric eel and human erythrocyte enzyme. Values reported below are with eel-derived enzyme. [drawing 5] where

For data set [2] the following is noted: cited from earlier work.
Data set [3] concerns acetylcholinesterase. Briefly: Time course inactivation of acetylcholinesterase. Type of data set: biochemical. The source says: The synthetic preparation of the hydrochloride salt of the tertiary amine inhibitors involves only slight modifications of the general method.
A short description of data set [4]: Solubility, hygroscopicity and stability. Type of data set: physicochemical.
Data set [5] has as its target acetylcholinesterase. Nature of the data set: Ellman assay for acetylcholinesterase inhibition (enzyme source not given). Format: biochemical. Particulars: enzyme source not stated.
Excerpt: as §1
On the technique in general: In Ellman's method for cholinesterases, released thiocholine reacts with DTNB.

Data set [6] concerns the target acetylcholinesterase. Nature of the data set: Inhibition and inactivation kinetics of acetylcholinesterase, substrate protection. Format: biochemical. To be noted: for Protection against inactivation by substrate acetylcholine: equimolar concentrations of acetylcholine and inhibitor (10 μM each), pre-incubation state.
Excerpt: as §1
p-Chloromethylphenyl choline carbonate iodide salt is an example of an inhibitor of acetylcholinesterase in accordance with the present invention.

acetylcholinesterase (Electrophorus electricus, UniProt O42275), sequence (O42275 24-633): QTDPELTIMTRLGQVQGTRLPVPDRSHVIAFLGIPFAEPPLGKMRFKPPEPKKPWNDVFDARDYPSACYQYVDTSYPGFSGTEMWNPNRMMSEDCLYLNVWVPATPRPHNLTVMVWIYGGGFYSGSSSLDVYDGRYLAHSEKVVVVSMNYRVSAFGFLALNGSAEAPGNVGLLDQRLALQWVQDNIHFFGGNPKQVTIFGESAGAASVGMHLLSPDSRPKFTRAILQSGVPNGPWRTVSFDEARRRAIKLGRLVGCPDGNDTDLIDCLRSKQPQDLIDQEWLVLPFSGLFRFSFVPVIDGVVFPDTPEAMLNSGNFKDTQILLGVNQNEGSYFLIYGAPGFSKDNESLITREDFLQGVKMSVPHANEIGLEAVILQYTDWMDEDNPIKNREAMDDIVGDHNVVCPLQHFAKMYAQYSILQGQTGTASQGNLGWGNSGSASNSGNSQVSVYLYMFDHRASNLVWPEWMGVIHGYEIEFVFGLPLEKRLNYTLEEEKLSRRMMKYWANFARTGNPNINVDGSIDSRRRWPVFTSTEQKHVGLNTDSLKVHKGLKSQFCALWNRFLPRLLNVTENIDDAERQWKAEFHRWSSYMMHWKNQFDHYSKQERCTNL

The compound `C[N+](C)(C)CCOC(=O)Oc1ccccc1CCl` [ortho-CH2 Cl] returned a half-maximal inhibitory concentration (IC50) on acetylcholinesterase [1] of 100 µM.

Turning to `CCOP(=O)(OCC)OP(=O)(OCC)OP(=O)(OCC)OP(=O)(OCC)OCC` (stereo not shown) [hexaethyltetraphosphate], in data set [2], the “Solubility in petroleum ethers and kerosene” value is given as “general insolubility”; the “Solubility in water (known inhibitors)” value is given as “somewhat soluble in water”.

On to `CN(C)CCOC(=O)Oc1ccc(CCl)cc1`, for which, in the data set with acetylcholinesterase [3] (compared with p-chloromethylphenyl choline carbonate), the “Time course inactivation relative to p-chloromethylphenyl choline carbonate” value is given as “time course inactivation similar to that for the p-chloromethylphenyl choline carbonate”. Also, in the data set with acetylcholinesterase [3] (deduced from time course data), the “Potency relative to the quaternary compound” value is “as potent as the quaternary compound”. The Inactivation of acetylcholinesterase in the data set on acetylcholinesterase [3] (first 15 minutes at 40 uM concentration) is given as 88%. In addition, the Water solubility result in data set [4] was “water- soluble”.

On acetylcholinesterase [5], `CC(C)(C)CCOC(=O)Oc1ccc(CCl)cc1` [3,3-dimethylbutyl p-chloromethylphenyl carbonate] returned a half-inhibitory concentration (IC50) of 8 µM.

For `C[N+](C)(C)CCOC(=O)Oc1ccc(CCl)cc1` [p-chloromethyl phenyl choline carbonate iodide salt], the concentration for half-maximal inhibition (IC50) on acetylcholinesterase [1] (eel-derived enzyme, Ellman assay, read-out: IC50 (proportionate amount necessary to reduce acetylcholinesterase activity by 50%)) was 40 µM. The same compound registered a Ki on acetylcholinesterase [6] (25° C., pH=8 phosphate buffer) of 32 µM. Further, the Km in the data set with acetylcholinesterase [6] (25° C., pH=8 phosphate buffer) is 144 µM. Further, the “Inactivation mode / kinetics” value with acetylcholinesterase [6] (below inhibitor concentrations of 40 μM) is “time-dependent manner with pseudo first order kinetics”. The “Protection against inactivation by substrate acetylcholine” value with acetylcholinesterase [6] was “offers partial protection against inactivation”; in the data set on acetylcholinesterase [6] (listed as p-chloromethyl derivative) it was “offers protection against inactivation”. In addition, in data set [4] (solid iodide salt), the Hygroscopicity entry is “very hygroscopic”.

Consider `C[N+](C)(C)CCOC(=O)Oc1cccc(CCl)c1` [meta-CH2 Cl], for which inhibition on acetylcholinesterase [1] was half-maximal at 150 µM (IC50).
